Data: BigSolDB 2.1

O=P(CCCO)(CCCO)CCCO
Conditions | solubility (mole fraction)
in acetone, 293.15 K | 0.0007
in acetone, 298.14 K | 0.00101
in acetone, 303.16 K | 0.00151
in acetone, 308.21 K | 0.00217
in acetone, 313.17 K | 0.00303
in acetone, 318.12 K | 0.00425
in acetone, 323.15 K | 0.00593
in ethanol, 298.12 K | 0.0226
in ethanol, 303.22 K | 0.0286
in ethanol, 308.17 K | 0.036
in ethanol, 313.1 K | 0.0456
in ethanol, 318.08 K | 0.0569
in ethanol, 323.11 K | 0.0718
in ethanol, 328.16 K | 0.0919
in isobutanol, 293.11 K | 0.0122
in isobutanol, 298.21 K | 0.0154
in isobutanol, 303.13 K | 0.019
in isobutanol, 308.15 K | 0.0234
in isobutanol, 313.17 K | 0.0291
in isobutanol, 318.14 K | 0.0357
in isobutanol, 323.23 K | 0.0436
in isopropanol, 298.13 K | 0.0155
in isopropanol, 303.21 K | 0.0187
in isopropanol, 308.15 K | 0.0224
in isopropanol, 313.17 K | 0.027
in isopropanol, 318.19 K | 0.0321
in isopropanol, 323.11 K | 0.0386
in isopropanol, 328.18 K | 0.0465
in methanol, 298.11 K | 0.0527
in methanol, 303.15 K | 0.0702
in methanol, 308.18 K | 0.091
in methanol, 313.1 K | 0.115
in methanol, 318.22 K | 0.144
in methanol, 323.14 K | 0.176
in methanol, 328.11 K | 0.21
in n-butanol, 298.13 K | 0.011
in n-butanol, 303.21 K | 0.0138
in n-butanol, 308.11 K | 0.0163
in n-butanol, 313.17 K | 0.02
in n-butanol, 318.15 K | 0.0252
in n-butanol, 323.1 K | 0.0302
in n-butanol, 328.23 K | 0.0369
in n-propanol, 298.16 K | 0.0369
in n-propanol, 303.11 K | 0.0438
in n-propanol, 308.13 K | 0.0517
in n-propanol, 313.12 K | 0.062
in n-propanol, 318.16 K | 0.0731
in n-propanol, 323.21 K | 0.0866
in n-propanol, 328.18 K | 0.102
